Earlier results, collected in patent US20240293435A1, “Methods and Compositions for Treating Human Disorders Using D-Cycloserine and a Psychedelic Agent” (William & Mary, priority 2023, published 2024).

What was measured:
[1] = system: Mycobacterium tuberculosis strains; conditions: typical Mycobacterium tuberculosis strains
[2] = system: Alzheimer's Disease

SMILES: N[C@@H]1CON=C1O [DCS, 3-Isoxazolidinone, 4-amino-, (4R)-(9CI)]
- minimum inhibitory concentrations (MIC) in vitro [1]: 6 to 25 µg/mL
- serum concentrations generally maintained (dose of 500 mg/day, chronic treatment): 25000 to 30000 ng/mL
- half-life (oral capsules): 10 h
- time to peak serum concentrations after dosing (oral capsules): 3 to 8 h
- benefit on Alzheimer's Disease ([2]; daily administration of 100 mg (Tsai et al. 1999)): positive benefit
- benefit for treatment of Alzheimer's Disease ([2]; up to 50 mg daily dosing, multi-center 410-patient trial (Fakouhi et al. 1995)): did not have a significant benefit
